These results are taken from patent US20100168112A1, “2-Substituted and 4-substituted aryl nitrone compounds” (RENOVIS, INC., priority 2004, published 2010).

A short description of data set [1]: Plasma protein binding (equilibrium dialysis), rat plasma. It is filed as in vitro ADME. Particulars: 1 μg/mL in plasma, dialysis vs phosphate buffer pH 7.4 overnight at 37° C., read-out: Plasma Protein Binding % Bound Rat (converted). The procedure: Nitrone compounds of this invention were individually dissolved in DMSO to make a stock solution of 1 mg/mL. The compound was spiked into plasma to achieve a final concentration of 1 μg/mL. Spiked plasma and phosphate buffer (0.1M, pH 7.4), 200 μl each, were added to the opposite sides of the membrane in a 96-well equilibrium dialyzer. The dialyzer plate was then covered and equilibrated overnight at 37° C. on an orbital shaker. Aliquots were taken from the plasma and the buffer compartments and prepared by adding blank plasma to samples from the buffer compartments and drug-free phosphate buffer to samples from the plasma compartments to eliminate the matrix effects. The samples were extracted using protein precipitation procedure by adding CH3CN. The samples were analyzed using a LC/MS/MS method. The percentage of free and bound nitrone compound were calculated according to the following formula:
%Free=[Free Drug/Total Drug]*100=[(Peak Area)buffer/(Peak Area)serum]*100%Bound=100%Free
On the technique in general: In equilibrium dialysis only unbound substance equilibrates across the membrane.

Data set [2] is described as follows: DPPH free radical-scavenging/antioxidant assay. It is filed as biochemical. The note with it: 50 μM DPPH in 80% methanol; 24 h time point; read-out: EC50 (concentration at which a compound reduces by 50% the peak absorbance of DPPH at 520 nm). The essentials:
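Compounds diluted 100-fold from DMSO stocks into 50 μM DPPH in 80% methanol; absorbance at 520 nm followed kinetically to steady state, with the 24 h reading used. EC50 interpolated from OD520 versus concentration; Trolox, BHA, PBN and S-PBN as positive controls, DMSO as vehicle.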
(In general: DPPH is a stable violet radical that fades when it is reduced.)

Data set [3] can be described thus: Microsomal stability in rat liver microsomes. It is filed as in vitro ADME. Particulars: rat liver microsomes 0.5 mg/ml, 1 mM NADPH, ~500 ng/ml compound, 37° C. On the procedure:
Frozen Sprague-Dawley rat liver microsomes (RLM) were thawed on ice and gently mixed before use. The final reaction mixture consisted of a nitrone compound of this invention (at ˜500 ng/ml), 1 mM NADPH, and 0.5 mg/ml of RLM protein in 0.1 M PBS (pH7.4), with organic solvent concentration not exceeding 1% (v/v). Per set of incubations, a positive control compound was included. The mixture was first pre-incubated 3 to 5 minutes at 37° C. without NADPH, and the reaction was then initialized by the addition of NADPH and incubated at 37° C. for up to 30 minutes. An aliquot of the reaction mixture was sampled at the initiation of the reaction and at designated time after reaction started. The drawn samples were quenched with acetonitrile, diluted with mobile phase to ensure the detection of test article in the linear range, and analyzed by LC/MS/MS. Half-life or percentage of remaining nitrone compound was calculated using standard methods. A similar method, or a slight variation of it, was used to test the stability of nitrones in human liver microsomes (HLM).

With `CC(C)(C)/[N+]([O-])=C/c1ccc(S(N)(=O)=O)cc1` [Compound 20, N-(tert-Butyl)-C-[4-(sulfamoyl)phenyl]nitrone], the fraction unbound at 1 μg/mL in data set [1] was 0.976. The EC50 in data set [2] was more than 1000 µM.

Regarding `CC(C)(C)/[N+]([O-])=C/c1ccc(S(=O)(=O)N2CCOCC2)cc1` [Compound 23, N-(tert-Butyl)-C-[4-(morpholine-4-sulfonyl)phenyl]nitrone], in data set [1], the fraction unbound at 1 μg/mL was 0.782. Further, the EC50 in data set [2] was more than 1000 µM.

`CC(C)(C)/[N+]([O-])=C/c1ccc(S(=O)(=O)Nc2cccnc2)cc1` [Compound 26, N-(tert-Butyl)-C-[4-(pyridin-3-ylsulfamoyl)phenyl]nitrone]: the fraction unbound at 1 μg/mL in data set [1] is 0.01. In addition, the EC50 in data set [2] is more than 1000 µM.

Consider `CC(C)(C)/[N+]([O-])=C/c1ccc(S(C)(=O)=O)cc1` [Compound 62, N-tert-Butyl-C-[4-(methanesulfonyl)phenyl]nitrone], for which, in data set [1], the fraction unbound at 1 μg/mL was 0.999. The “% of Nitrone Remaining at 30 min (Rat)” value in data set [3] is listed as 100%. In addition, the EC50 in data set [2] was more than 1000 µM.

For the compound `CC(C)(C)/[N+]([O-])=C/c1ccc(S(C)(=O)=O)cc1S(C)(=O)=O` [Compound 63, N-tert-Butyl-C-(2,4-bis-methanesulfonylphenyl)nitrone], the fraction unbound at 1 μg/mL in data set [1] is 0.741. The “% of Nitrone Remaining at 30 min (Rat)” value in data set [3] was determined as 97%. In addition, the EC50 in data set [2] was in the range of 500 to 1000 µM.

Consider `CCS(=O)(=O)c1ccc(/C=[N+](\[O-])C(C)(C)C)c(S(=O)(=O)CC)c1` [Compound 64, N-tert-Butyl-C-(2,4-bis-ethanesulfonylphenyl)nitrone], for which the fraction unbound at 1 μg/mL in data set [1] was 0.811. For the same compound, in data set [3], the “% of Nitrone Remaining at 30 min (Rat)” value stood at 100%. In addition, the EC50 in data set [2] lay in the range of 500 to 1000 µM.

For the compound `CC(C)(C)/[N+]([O-])=C/c1ccccc1S(C)(=O)=O` [Compound 66, N-tert-Butyl-C-(2-methanesulfonylphenyl)nitrone], in data set [1], the fraction unbound at 1 μg/mL was 0.898. For the same compound, the EC50 in data set [2] was in the range of 500 to 1000 µM.
